Series [1] has as its system HO1-mCherry-hiPSC-derived 3D renal organoids. Description: Blind-coded screen, mCherry fluorescence of HMOX1 reporter in 3D organoids. On the procedure: (§1) H O 1-mCherry-hiPSC renal organoids (both flat and 3D) were incubated in a 4-fold dilution series of each compound for either 24 h or 72 h. Data on reporter expression are shown graphically in Figure 5.
(§2) A four-fold dilution series of each blinded compound (lyophilized, obtained from the Gothenburg authors) was prepared and HO1-mCherry-hiPSC-derived renal organoids (flat and 3D) were incubated in these dilutions for either 24h or 72h (Figure 5). A no-treatment control was included for each compound, time-point and organoid type (flat or 3D). 24h flat organoids were cultured in 4 x wells of a 24-well plate; 72h flat organoids in wells of a 96-well plate and 3D organoids on transwell inserts.
(§3) Fluorescence measurements were taken after 24h or 72h. Each live organoid was imaged either 5 times with 4 replicates (flat organoids, 24h), once with 10 replicates (flat organoids, 72h), once with 3 replicates (3D organoids, 24h) or 3 times with 3 replicates (3D organoids, 72h). Organoids were imaged using a Zeiss Axiovert microscope with Axiovision software. All images used for fluorescence intensity analysis were taken with identical exposures and settings. All images were analysed using ImageJ. The total fluorescence intensity of the image was multiplied by the total area with a signal between 600 (lower threshold) and 4096 (higher threshold), where 0 is completely black and 4096 is completely white. Thus, only signal above a certain threshold is measured in order to discount very dark areas with no cells.
(§4) In graphs, a single star indicates a p value of the null hypothesis being true of less than 0.05, two stars a p value of less than 0.01 and 3 stars a p value of less than 0.001. Calculation of the overall performance of the assay (in the Discussion section) was performed by calculating the Wilson Score Interval method ([Newcombe, 1998]).

The subject of series [2] is HO1-mCherry-hiPSC-derived flat renal organoids. The series can be described thus: Blind-coded screen, mCherry fluorescence of HMOX1 reporter in flat organoids. Here is the method:
as §1, §2, §3, §4

Series [3] concerns hiPSC-derived renal organoids. It is filed as cell-based, human. The text has this: We also stained drug-treated organoids for HMOX1 together with LTL and COL IV (Figure S3A), or JAG1 (Figure S3B), to test whether the response is localized to a specific cell type in the organoid. […] The general increase in HMOX1 expression in response to the toxic drugs, rather than specific response in proximal tubular cells, the primary site of toxicity of both drugs, could be due to the availability of the drug to all cell types of the organoid through the media in contrast to what happens in vivo where these drugs filter through the glomeruli then specifically accumulate inside the proximal tubular cells, through apical uptake pathways, where most of their toxic effect is seen.
The culture medium was aspirated, cells washed once in PBS, then fixed in 4% PFA in PBS for 15 minutes at room temperature, followed by three PBS washes of 3 min each. Cells were permeabilised and blocked for 1 hour (2% BSA, 0.3% Triton x100 in PBS). Cells were washed in PBS and incubated with primary antibodies overnight at 4 °C. Cells were washed in PBS (3x, 15 min) and incubated with secondary antibodies for 2 hrs at room temperature. Cells were washed in PBS (3x, 15 minutes) before imaging in PBS in the wells. Images were taken using a Zeiss Axiovert fluorescence microscope. […]

In series [4] the test system is flat and 3D HO1-mCherry-hiPSC-derived organoids. Description: HMOX1 qPCR in the blind-coded screen, flat and 3D organoids, 24h. It is filed as cell-based, human. Conditions: highest concentration 384µM. Here is the method: A one-way ANOVA on repeated measures was performed. […]
mCherry insertion without hydrogen peroxide treatment. B) Single mCherry-positive cells were sorted into each well of 96-well plates as shown in the right panel to isolate clonal populations. Negative (wild type) cells are shown in the left panel. C) Diagram of the primers designed for verifying cassette insertion into the hiPSC genome. D) PCR products using primer pair 1 and 4 shown in C) - endogenous […]
Figure S5. HMOX1 expression in flat and 3D HO1-mCherry-hiPSC-derived flat and 3D organoids by qPCR fold-change analysis, Related to Figure 6.
HMOX1 expression fold-change compared to vehicle control in flat (white) and 3D […]

Series [5] deals with HO1-mCherry-hiPSC-derived flat renal organoids. Description: Verification of reporter response in flat organoids to known nephrotoxicants (fluorescence, qPCR). It is filed as cell-based, human. Conditions: increasing amounts of compound. In general terms: Quantitative PCR measures a nucleic acid by following its amplification.
Method: Total RNA was isolated from organoids using the Qiagen RNeasy mini kit. Flat organoids were dissociated and processed as per the kit protocol. 3D organoids were lysed using the lysis buffer provided in the kit and then passed through a needle to fully dissociate before continuing with the kit protocol. RNA was stored at −80 °C until use. cDNA for qPCR was prepared using 2μg RNA and cDNA for RT-PCR was prepared using 1μg of RNA. All cDNA was quality-controlled by PCR using intron-spanning primers for β-actin on cDNA, prepared with or without reverse transcriptase (primers in Table S4). RT-PCRs for OAT1 (SLC22A6) and OCT2 (SLC22A2) were carried out in multiplex reactions with primers for β-actin as loading controls (primers in Table S4). qPCRs on undifferentiated and flat organoids for HMOX1 with HPRT1 as internal control were performed using TaqMan reagents as per published protocols (Applied Biosystems, assay nos. in Table S4). For qPCRs in the blind-coded screen, quality-controlled cDNA was provided by the Edinburgh authors to the Gothenburg authors. […] The reaction was prepared via Beckman NX and measured on Applied Biosystems QuantStudio 7 Real-Time PCR System.Technical triplicates served to calculate CT mean for each gene. The ΔCT between the target gene and the mean CT of the two reference genes was calculated for each biological replicate. […]
The test system of series [6] is hiPSC-derived flat renal organoids. Description: RNA-seq of wild-type hiPSC-derived flat renal organoids treated with gentamicin for 24 h. It is filed as cell-based, human. The text has this: Although some transporters were more strongly expressed in the 3D organoids, the presence of Megalin and Cubulin in the flat organoids, combined with their increased suitability for high-throughput analyses, led us to adopt this form of organoid to identify a potential reporter for toxic insults in renal organoids. hiPSCs were differentiated into flat renal organoids, and their renal identity was verified by confirming expression of common renal markers (as described above and in the Methods section). We treated these flat renal organoids for 24 h with the known nephrotoxicant, gentamicin ([Regec et al., 1986], [1989]; [El Mouedden et al., 2000]), at 1 or 4 mg/mL, leaving some as vehicle-only controls (3 separate organoids per condition). Gentamicin was chosen based on the presence of Megalin and Cubulin in these organoids because they are the main endocytic receptors involved in gentamicin uptake into proximal tubule cells ([Schmitz et al., 2002]) and would be expected to be necessary for a realistic toxic response. The transcriptomes of renal organoids in these three conditions were compared using RNA-seq analyses.
In contrast, treatment with 4 mg/mL gentamicin caused the expression of 2,221 genes to increase and that of 1770 to decrease. Among the transcripts showing increased expression was KIM-1 (log fold-change: 1.67; FDR-corrected p = 0.03), a biomarker commonly associated with renal tubular necrosis (Table S1).
RNA-seq, and trimming, filtering and normalization of raw data, was performed by Edinburgh Genomics. 1 μg of total RNA/sample was used for sequencing library preparation using an Illumina TruSeq stranded mRNA kit. Sequencing was performed using a Novaseq S1 50 Paired-end run to produce 50–64 million read-pairs per sample. Reads were trimmed using Cutadapt and were aligned to the Homo sapiens reference genome (GRCh38; from Ensembl) using STAR. […] Reads were assigned to features of type ‘exon’ in the input annotation grouped by gene_id in the reference genome using Feature Counts. […] Reads were normalised using the weighted trimmed mean of M-values method. […]

The test system of series [7] is undifferentiated HO1-mCherry-hiPSCs. Conditions: 0, 125, or 250 μM for 24 h.
Method: RNA was stored at −80 °C until use. cDNA for qPCR was prepared using 2μg RNA and cDNA for RT-PCR was prepared using 1μg of RNA. […] 12 ng of cDNA was utilized for each qPCR reaction. TaqMan gene expression assays (Applied Biosystems, TaqMan Gene Expression FAST Master Mix) were performed on HMOX1 and house-keeping genes HPRT and RPLP0. The reaction was prepared via Beckman NX and measured on Applied Biosystems QuantStudio 7 Real-Time PCR System.Technical triplicates served to calculate CT mean for each gene. The ΔCT between the target gene and the mean CT of the two reference genes was calculated for each biological replicate. The mean ΔCT of biological triplicates was normalized to untreated sample resulting in 2^ΔΔCT. […] A one-way ANOVA on repeated measures was performed. Significant fold-change was established by Dunnett's multiple comparisons test.
Where [8] appears, read: 3D organoids, 24 h and 72 h, 4-fold dilution series.
[9] abbreviates: flat organoids, 24 h and 72 h, 4-fold dilution series.

The structures appear in SMILES notation. Values joined by “and” are separate entries in the source; they are usually repeats but may differ in a detail not shown here. Identical values can stand only once. Like-named read-outs stand apart in the source and are kept apart here.

On to `O=P1(NCCCl)OCCCN1CCCl` (stereo not drawn) [Ifosfamide], for which the “Prediction of toxicity by increase in fluorescence intensity” value (“Prediction of toxicity by increase” for short) in series [1] (3D 24h), in series [1] (3D 72h), in series [2] (Flat 24h) and in series [2] (Flat 72h) was “Y” in each case. The “Reporter fluorescence response compared to vehicle control” value in series [1] (setting [8]) and in series [2] (setting [9]) was “significant fluorescence increase” each time.

In the case of `Nc1ccn(C[C@@H](CO)OCP(=O)(O)O)c(=O)n1` [Cidofovir], the “Prediction of toxicity by increase” value was “Y” in series [1] (3D 24h), “N” in series [1] (3D 72h), “N” in series [2] (Flat 24h) and “Y” in series [2] (Flat 72h). Besides, the “Reporter fluorescence response compared to vehicle control” value in series [1] (3D organoids, 24 h) is “showed a response after 24 h treatment”; in series [1] (3D organoids, 72 h), “not after 72 h”; in series [2] (flat organoids, 24 h), “no significant response”; in series [2] (flat organoids, 72 h) it was “elicited a response at even the lowest concentration tested”.

Turning to `C[C@@H]1C[C@H]2[C@@H]3CCC4=CC(=O)C=C[C@]4(C)[C@@]3(F)[C@@H](O)C[C@]2(C)[C@@]1(O)C(=O)CO` [Dexamethasone], the “Prediction of toxicity by increase” value in series [1] (3D 24h), in series [1] (3D 72h), in series [2] (Flat 24h) and in series [2] (Flat 72h) was “N” in each case. Also, the “Prediction of toxicity, combination of 24 and 72 h (Boolean OR)” value in series [1] (3D organoids) is recorded as “did not predict toxicity”. The “Reporter fluorescence response compared to vehicle control” value in series [1] (setting [8]) and in series [2] (setting [9]) was “none of the concentrations produced a signal statistically different” each time.

Turning to `N.N.[Cl][Pt][Cl]` [Cisplatin], in series [3], the “HMOX1 expression by immunostaining” value was “HMOX1 expression increased”. Also, the “Cell death (no cDNA obtained)” value in series [4] is listed as “massive cell death”. For the same molecule, in series [1], the “Reporter fluorescence response compared to vehicle control” value is reported as “significant increase in fluorescence” and the “Tubular structure of treated organoids” value is given as “distinct loss of tubular structure”. Also, the “Reporter fluorescence response compared to vehicle control” value in series [2] is “significant increase in fluorescence”.

For `CNC(C)C1CCC(N)C(OC2C(N)CC(N)C(OC3OCC(C)(O)C(NC)C3O)C2O)O1` (stereo not drawn) [Gentamicin], the “mCherry fluorescence intensity (fold-change relative to vehicle control)” value in series [5] is reported as “increased in a dose-dependent manner”. Moreover, the “HMOX1 expression by immunostaining” value in series [3] (human) was “HMOX1 expression increased”. In series [1], the “Prediction of toxicity by increase” value is recorded as “Y” and the “Tubular structure of treated organoids” value is “maintained their tubular structures”. The “Low concentration to which organoids responded (fluorescence)” value in series [1] (human, 24 h) turned out to be 6 µM. The “Low concentration to which organoids responded (fluorescence)” value in series [2] (human, 24 h) is recorded as 2 4 μM. The “Log2FC HMOX1” value in series [6] (4 mg/mL vs control, 24 h) is 6.552 and 6.55. For the same molecule, in series [6] (data not shown), the “Expression of CLU in RNA-seq” value was “not up-regulated” and the “Expression of NGAL in RNA-seq” value is “downregulated”.

On to `COc1ccc(C[C@H](N)C(=O)N[C@H]2[C@@H](O)[C@H](n3cnc4c(N(C)C)ncnc43)O[C@@H]2CO)cc1` [Puromycin], for which the “Reporter fluorescence response compared to vehicle control” value in series [1] (human) was “significant rise in fluorescence after both 24 and 72 h”; in series [2] (human) it was “significant rise in fluorescence after both 24 and 72 h”.

On to `OO` [hydrogen peroxide], for which, in series [7], the “HMOX1 transcripts by qPCR” value is reported as “increase in HMOX1 transcripts” and the mCherry fluorescence entry is reported as “increased in a dose-dependent manner”.

In the case of `CC(C(=O)O)c1cccc(C(=O)c2ccccc2)c1` (stereo not drawn) [Ketoprofen], the “Prediction of toxicity by increase” value in series [1] (3D 24h) is on record as “N”; in series [1] (3D 72h) it was “N”; in series [2] (Flat 24h), “Y”; in series [2] (Flat 72h) it was “Y”. Further, the “Reporter fluorescence response compared to vehicle control” value in series [1] (3D organoids, 72 h) is recorded as “only at the highest concentration after 72 h”; in series [2] (setting [9]) it was “significant response in the flat cultures at the two highest concentrations”.

These data come from paper PMC8861638, “Human iPSC-derived renal organoids engineered to report oxidative stress can predict drug-induced toxicity” (iScience, 2022).
